Publication PMC10584170, “Machine learning-based phenotypic imaging to characterise the targetable biology of Plasmodium falciparum male gametocytes for the development of transmission-blocking antimalarials” (PLOS Pathogens, 2023)
Read-outs that look alike come from different tables or passages of the source. Blank lines part the entries; values can stand above or below the compound they belong to.

What was measured:
[1] = test system: P. falciparum female gametocytes; assay: P. falciparum Dual Gamete Formation Assay (PfDGFA), female readout (Pfs25-positive female gametes); type: cell-based, Plasmodium falciparum NF54
In short: (§1)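 First, day-14 P. falciparum NF54 gametocytes receive compound for 24 h at 37°C in 1% O2/3% CO2. Next, ookinete medium with Cy3 anti-Pfs25 triggers gametogenesis at 28°C and male exflagellation is imaged. Finally, after 24 h in the dark, Cy3-labelled females are imaged.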

[2] = test system: P. falciparum male gametocytes; assay: P. falciparum Dual Gamete Formation Assay (PfDGFA), male readout (exflagellation); type: cell-based, Plasmodium falciparum NF54; details: for Activity: hit = >50% inhibition in male or female readout in at least 3 replicates, 0 = no class assigned
In short: as §1

[3] = 2µM, 24h preincubation with gametocytes prior to induction of gametogenesis, average of replicates
[4] = 2µM, 24h preincubation with gametocytes prior to induction of gametogenesis, replicate R1
[5] = 2µM, 24h preincubation with gametocytes prior to induction of gametogenesis, replicate R3
[6] = 2µM, 24h preincubation with gametocytes prior to induction of gametogenesis, replicate R4
[7] = 2µM, 24h preincubation, number of replicates with >50% inhibition in the female readout
[8] = 2µM, 24h preincubation, number of replicates with >50% inhibition in the male readout
[9] = PfDGFA at 2µM, 24h preincubation with gametocytes, average of replicates
[10] = PfDGFA at 2µM, 24h preincubation with gametocytes, replicate R1
[11] = PfDGFA at 2µM, 24h preincubation with gametocytes, replicate R3
[12] = PfDGFA at 2µM, 24h preincubation with gametocytes, replicate R4
[13] = number of replicates with >50% inhibition in the female readout, 2µM
[14] = number of replicates with >50% inhibition in the male readout, 2µM
[15] = 2µM, 24h preincubation, hits selected on >50% inhibition in the female readout across replicates
[16] = 2µM, 24h preincubation, hits selected on >50% inhibition in the male readout across replicates
[17] = PfDGFA at 2µM, 24h preincubation
[18] = PfDGFA at 2µM, 24h preincubation with gametocytes prior to induction of gametogenesis, replicate R1
[19] = PfDGFA at 2µM, 24h preincubation with gametocytes prior to induction of gametogenesis, replicate R3
[20] = PfDGFA at 2µM, 24h preincubation with gametocytes prior to induction of gametogenesis, replicate R4
[21] = PfDGFA at 2µM, 24h preincubation, average of replicates

SMILES: Cc1cccc2nc(-c3ccc(-c4cccc(CN5CCC(CCN6CCCCC6)CC5)c4)s3)[nH]c12.O=C(O)C(F)(F)F [TCMDC-133923]
Average inhibition female (%) [1, 3]: 32.1%
% inhibition female (individual replicates) R1 [1, 4]: 30.9%
% inhibition female (individual replicates) R3 [1, 5]: 27.4%
% inhibition female (individual replicates) R4 [1, 6]: 27.6%
HitlevelF [1, 7]: 0
Average inhibition male (%) [2, 3]: 52.7%
% inhibition male (individual replicates) R1 [2, 4]: 48.5%
% inhibition male (individual replicates) R3 [2, 5]: 59.9%
% inhibition male (individual replicates) R4 [2, 6]: 89.6%
HitlevelM [2, 8]: 2

SMILES: Cc1cccc2nc(-c3ccc(-c4ccc(CN5CCC(CCN6CCCCC6)CC5)cc4)cc3)[nH]c12.O=C(O)C(F)(F)F [TCMDC-133929]
Average inhibition female (%) [1, 9]: 48.2%
% inhibition female (individual replicates) R1 [1, 10]: 36.0%
% inhibition female (individual replicates) R3 [1, 11]: 37.3%
% inhibition female (individual replicates) R4 [1, 12]: 59.9%
HitlevelF [1, 13]: 2
Average inhibition male (%) [2, 9]: 89.3%
% inhibition male (individual replicates) R1 [2, 10]: 91.7%
% inhibition male (individual replicates) R3 [2, 11]: 68.3%
% inhibition male (individual replicates) R4 [2, 12]: 101.6%
HitlevelM [2, 14]: 4

SMILES: FC(F)(F)c1ccc2[nH]c(-c3ccc(-c4cccc(CN5CCC(CCN6CCCCC6)CC5)c4)cc3)nc2c1.O=C(O)C(F)(F)F [TCMDC-133941]
Average inhibition female (%) [1, 9]: 50.7%
% inhibition female (individual replicates) R1 [1, 10]: 37.2%
% inhibition female (individual replicates) R3 [1, 11]: 33.9%
% inhibition female (individual replicates) R4 [1, 12]: 67.8%
HitlevelF [1, 13]: 2
Average inhibition male (%) [2, 9]: 80.4%
% inhibition male (individual replicates) R1 [2, 10]: 88.3%
% inhibition male (individual replicates) R3 [2, 11]: 55.8%
% inhibition male (individual replicates) R4 [2, 12]: 84.9%
HitlevelM [2, 14]: 4

SMILES: O=C(O)C(F)(F)F.Oc1ccc(CCNc2nc(NCCCOc3cc(CN4CCCCC4)ccc3F)nc(N3CCNCC3)n2)cc1 [TCMDC-134044]
Average inhibition female (%) [1, 3]: 16.2%
% inhibition female (individual replicates) R1 [1, 4]: 9.4%
% inhibition female (individual replicates) R3 [1, 5]: -11.0%
% inhibition female (individual replicates) R4 [1, 6]: 47.6%
HitlevelF [1, 15]: 0
Average inhibition male (%) [2, 3]: 22.7%
% inhibition male (individual replicates) R1 [2, 4]: 35.5%
% inhibition male (individual replicates) R3 [2, 5]: -22.2%
% inhibition male (individual replicates) R4 [2, 6]: 28.2%
HitlevelM [2, 16]: 0
Activity [2, 17]: 0

SMILES: Cc1c(Cl)cccc1S(=O)(=O)Nc1ccc(CCN2CCC(N)CC2)cc1.Cl [TCMDC-134083]
Average inhibition female (%) [1, 3]: 33.7%
% inhibition female (individual replicates) R1 [1, 4]: 28.3%
% inhibition female (individual replicates) R3 [1, 5]: 44.7%
% inhibition female (individual replicates) R4 [1, 6]: 16.4%
HitlevelF [1, 7]: 0
Average inhibition male (%) [2, 3]: 39.0%
% inhibition male (individual replicates) R1 [2, 4]: 41.2%
% inhibition male (individual replicates) R3 [2, 5]: 34.9%
% inhibition male (individual replicates) R4 [2, 6]: 36.9%
HitlevelM [2, 8]: 0

SMILES: Cl.NC1CCN(CCc2ccc(NS(=O)(=O)c3cccc4ccccc34)cc2)CC1 [TCMDC-134084]
Average inhibition female (%) [1, 3]: 19.4%
% inhibition female (individual replicates) R1 [1, 4]: 15.4%
% inhibition female (individual replicates) R3 [1, 5]: 22.2%
% inhibition female (individual replicates) R4 [1, 6]: 21.1%
HitlevelF [1, 7]: 0
Average inhibition male (%) [2, 3]: 20.4%
% inhibition male (individual replicates) R1 [2, 4]: 10.3%
% inhibition male (individual replicates) R4 [2, 6]: 7.9%
HitlevelM [2, 8]: 0

SMILES: Cl.NC1CCN(CCc2ccc(NS(=O)(=O)c3ccc(-c4ccccc4)cc3)cc2)CC1 [TCMDC-134085]
Average inhibition female (%) [1, 3]: 47.2%
% inhibition female (individual replicates) R1 [1, 4]: 28.9%
% inhibition female (individual replicates) R3 [1, 5]: 50.6%
% inhibition female (individual replicates) R4 [1, 6]: 70.5%
HitlevelF [1, 7]: 2
Average inhibition male (%) [2, 3]: 44.1%
% inhibition male (individual replicates) R1 [2, 4]: 43.6%
% inhibition male (individual replicates) R3 [2, 5]: 36.7%
% inhibition male (individual replicates) R4 [2, 6]: 44.2%
HitlevelM [2, 8]: 1

SMILES: COc1ccc(-c2cnc(NCc3ccccc3)nc2)cc1CNC1CCN(C)CC1.O=C(O)C(F)(F)F [TCMDC-134121]
Average inhibition female (%) [1, 3]: 23.3%
% inhibition female (individual replicates) R1 [1, 4]: 22.9%
% inhibition female (individual replicates) R3 [1, 5]: 24.0%
% inhibition female (individual replicates) R4 [1, 6]: 18.0%
HitlevelF [1, 7]: 0
Average inhibition male (%) [2, 3]: 49.5%
% inhibition male (individual replicates) R1 [2, 4]: 40.8%
% inhibition male (individual replicates) R4 [2, 6]: 53.6%
HitlevelM [2, 8]: 2

IC50 ([1]; Plasmodium falciparum, PfDGFA, 24 h incubation with gametocytes before induction, female gamete readout, read-out: Female IC50): > 10 µM
IC50 ([2]; Plasmodium falciparum, PfDGFA, 24 h incubation with gametocytes before induction, exflagellation readout, read-out: Male IC50): 6.25 µM
SMILES: CS(=O)(=O)Cc1ccc(Nc2ncc(Cl)c(Nc3cccnc3C(N)=O)n2)cc1.Cl [TCMDC-134165]
Selectivity ratio F ([1]; HepG2 Tox50 versus female IC50): 10.00
inhibition at 2 µM ([1]; Plasmodium falciparum, 2µM, 24h preincubation with gametocytes, average of replicates, read-out: Average inhibition female (%)): -4.3%
inhibition at 2 µM ([1]; Plasmodium falciparum, 2µM, 24h preincubation with gametocytes, replicate R1, read-out: % inhibition female (individual replicates) R1): -8.1%
inhibition at 2 µM ([1]; Plasmodium falciparum, 2µM, 24h preincubation with gametocytes, replicate R2, read-out: % inhibition female (individual replicates) R2): -1.5%
inhibition at 2 µM ([1]; Plasmodium falciparum, 2µM, 24h preincubation with gametocytes, replicate R3, read-out: % inhibition female (individual replicates) R3): -18.7%
inhibition at 2 µM ([1]; Plasmodium falciparum, 2µM, 24h preincubation with gametocytes, replicate R4, read-out: % inhibition female (individual replicates) R4): 10.9%
Selectivity Ratio M ([2]; HepG2 Tox50 versus male IC50): 16.00
inhibition at 2 µM ([2]; Plasmodium falciparum, 2µM, 24h preincubation with gametocytes, average of replicates, read-out: Average inhibition male (%)): 92.8%
inhibition at 2 µM ([2]; Plasmodium falciparum, 2µM, 24h preincubation with gametocytes, replicate R1, read-out: % inhibition male (individual replicates) R1): 89.8%
inhibition at 2 µM ([2]; Plasmodium falciparum, 2µM, 24h preincubation with gametocytes, replicate R2, read-out: % inhibition male (individual replicates) R2): 95.7%
inhibition at 2 µM ([2]; Plasmodium falciparum, 2µM, 24h preincubation with gametocytes, replicate R3, read-out: % inhibition male (individual replicates) R3): 93.3%
inhibition at 2 µM ([2]; Plasmodium falciparum, 2µM, 24h preincubation with gametocytes, replicate R4, read-out: % inhibition male (individual replicates) R4): 92.2%

SMILES: CS(=O)(=O)Cc1cccc(Nc2ncc(Cl)c(Nc3cccnc3C(N)=O)n2)c1.Cl [TCMDC-134166]
% inhibition female (individual replicates) R1 [1, 18]: 12.6%
% inhibition female (individual replicates) R3 [1, 19]: -16.8%
% inhibition female (individual replicates) R4 [1, 20]: 3.4%
Average inhibition female (%) [1, 21]: 1.1%
% inhibition male (individual replicates) R1 [2, 18]: 26.3%
% inhibition male (individual replicates) R3 [2, 19]: 45.1%
% inhibition male (individual replicates) R4 [2, 20]: 42.9%
Average inhibition male (%) [2, 21]: 37.5%

SMILES: CC[C@H](C)CNC(=O)c1ccnc(-c2ccc(CN3CCC(N4CCCC4)CC3)cc2)c1.O=C(O)C(F)(F)F [TCMDC-134250]
Average inhibition female (%) [1, 3]: 14.3%
% inhibition female (individual replicates) R1 [1, 4]: 14.5%
% inhibition female (individual replicates) R3 [1, 5]: 6.5%
% inhibition female (individual replicates) R4 [1, 6]: 6.6%
HitlevelF [1, 15]: 0
Average inhibition male (%) [2, 3]: -12.4%
% inhibition male (individual replicates) R1 [2, 4]: -12.1%
% inhibition male (individual replicates) R3 [2, 5]: -7.9%
% inhibition male (individual replicates) R4 [2, 6]: -29.8%
HitlevelM [2, 16]: 0
Activity [2, 17]: 0

SMILES: CC1CCCC(C)N1C[C@@H](O)CNS(=O)(=O)c1cccc(C(F)(F)F)c1.Cl (stereo partly drawn) [TCMDC-134258]
Average inhibition female (%) [1, 3]: 4.2%
% inhibition female (individual replicates) R1 [1, 4]: 10.4%
% inhibition female (individual replicates) R3 [1, 5]: -24.4%
% inhibition female (individual replicates) R4 [1, 6]: 21.9%
HitlevelF [1, 15]: 0
Average inhibition male (%) [2, 3]: 5.6%
% inhibition male (individual replicates) R1 [2, 4]: -0.6%
% inhibition male (individual replicates) R3 [2, 5]: 1.0%
% inhibition male (individual replicates) R4 [2, 6]: 12.9%
HitlevelM [2, 16]: 0
Activity [2, 17]: 0

SMILES: CN(C)CCC1CCN(CCS(=O)(=O)c2cccc(Nc3ncc(-c4cccc(F)c4)cn3)c2)CC1 [TCMDC-134374]
Average inhibition female (%) [1, 3]: 19.0%
% inhibition female (individual replicates) R1 [1, 4]: 15.2%
% inhibition female (individual replicates) R3 [1, 5]: 18.5%
% inhibition female (individual replicates) R4 [1, 6]: 17.0%
HitlevelF [1, 7]: 0
Average inhibition male (%) [2, 3]: 10.6%
% inhibition male (individual replicates) R1 [2, 4]: 1.8%
% inhibition male (individual replicates) R3 [2, 5]: -1.4%
% inhibition male (individual replicates) R4 [2, 6]: 25.6%
HitlevelM [2, 8]: 0

SMILES: COc1cccc(-c2csc(C(=O)NCC3CCN(Cc4ccc(C(C)(C)C)cc4)C3)c2)c1.O=C(O)C(F)(F)F (stereo not drawn) [TCMDC-134447]
Average inhibition female (%) [1, 3]: 52.6%
% inhibition female (individual replicates) R1 [1, 4]: 33.4%
% inhibition female (individual replicates) R3 [1, 5]: 31.5%
% inhibition female (individual replicates) R4 [1, 6]: 78.5%
HitlevelF [1, 7]: 2
Average inhibition male (%) [2, 3]: 11.1%
% inhibition male (individual replicates) R1 [2, 4]: 23.9%
% inhibition male (individual replicates) R3 [2, 5]: 12.3%
% inhibition male (individual replicates) R4 [2, 6]: 2.2%
HitlevelM [2, 8]: 0

SMILES: CCc1ccccc1-c1csc(C(=O)NCC2CCN(Cc3ccc(C(C)(C)C)cc3)C2)c1.O=C(O)C(F)(F)F (stereo not drawn) [TCMDC-134448]
Average inhibition female (%) [1, 3]: 31.2%
% inhibition female (individual replicates) R1 [1, 4]: 30.8%
% inhibition female (individual replicates) R3 [1, 5]: 36.1%
% inhibition female (individual replicates) R4 [1, 6]: 25.0%
HitlevelF [1, 7]: 0
Average inhibition male (%) [2, 3]: -3.3%
% inhibition male (individual replicates) R1 [2, 4]: 5.2%
% inhibition male (individual replicates) R3 [2, 5]: -15.7%
% inhibition male (individual replicates) R4 [2, 6]: -8.5%
HitlevelM [2, 8]: 0
